Test results from US20040220268A1, “Compound that directly stimulates phospholipase C activity” (priority 2003, published 2004).

Key:
human neutrophils = test: Superoxide anion generation (lucigenin chemiluminescence); assay type: cell-based; settings: up to 50 μM
Description: Superoxide anion generation was measured by monitoring chemiluminescence in the presence of the chemiluminogenic probe lucigenin. Prepared neutrophils were stimulated with m-3M3FBS or o-3M3FBS at 2.5, 5, 10, 15, 20, 25, and 50 μM and lucigenin (40 μM) was then added. Luminescence changes were measured using a Luminoskan. Data are presented as means ±S. E. M. of four independent experiments (A). Structures of m-3M3FBS (2,4,6-Trimethyl-N-(meta 3-trifluoromethyl-phenyl)-benzenesulfonamide) and o-3M3FBS (2,4,6-Trimethyl-N-(ortho 3-trifluoromethyl-phenyl)-benzenesulfonamide) (B).
Superoxide anion production was measured by monitoring chemiluminescence in the presence of the chemiluminogenic probe lucigenin (Bureau et al., 2001). Prepared neutrophils were plated in 96 wells and stimulated with chemicals at concentrations of 2.5, 5, 10, 15, 20, 25 and 50 μM, and then the lucigenin (40 μM) was added. Luminescence, measured with a Luminoskan (Labsystems, Inc., Helsinki, Finland), was integrated over 10 s intervals for a total of 3 min at room temperature.

PC12 cells = test: [Ca2+]i measurement with fura-2; assay type: cell-based, rat; settings: 25 μM
Description: Neutrophils and HL60, and differentiated HL60, U937, NIH3T3, and PC12 cells were loaded with fura-2 and then stimulated with 25 μM of m-3M3FBS. Changes in the 340 nm/380 nm excitation ratio were monitored, and converted to [Ca^2+]i levels. Data are presented as means ±S. E. M. of three independent experiments.
U937 (human histiocytic lymphoma cells), HL60 (human promyelocytic leukemia cells), NIH3T3 (NIH Swiss mouse embryo fibroblasts), and PC12 (rat adrenal pheochromocytoma cells) were obtained from the American Type Culture Collection (Rockville, Md.) and HeLa (human adenocarcinoma cells) Tet-off cells were purchased from Clontech (Palo Alto, Calif., U.S.A.) and maintained as recommended. The cells were maintained at about 1×10^6 cells/ml under standard incubator conditions (humidified atmosphere, 95% air, 5% CO2, 37° C.). […]
Freshly prepared human neutrophils were incubated in serum free RPMI 1640 medium with 3 μM of fura-2/AM at 37° C. for 30 min with continuous stirring. […] Changes in the fluorescence ratio were measured at an emission wavelength of 500 nm for dual excitation wavelengths at 340 nm and 380 nm. The calibration of the fluorescence ratio versus [Ca^2+]i was performed as described by Grynkiewicz (Grynkiewicz et al., 1985).

Gs-proteins = test: Cyclic AMP generation (radio receptor assay); assay type: cell-based; settings: human neutrophils; m-3M3FBS 25 μM, histamine 100 μM
Description: (§1) Isolated neutrophils were preincubated with PTX (1 μg/ml) or vehicle for 90 min at 37° C. and stimulated with m-3M3FBS, FMLF, or ATP at concentrations of 25, 1, and 500 μM, respectively. Changes in the excitation ratios at 340 nm/380 nm were monitored. Data are presented as means ±S. E. M. of two independent experiments (A). cAMP levels were determined by a radio receptor assay. Prepared cells were treated with m-3M3FBS (25 μM) or histamine (100 μM) and then lysed with Tris-EDTA. After removing the supernatant, [ 3H] cAMP and protein were added, and the amount of [^3H] cAMP-protein complex was determined. The amount of unlabeled cAMP (in the sample) was then calculated by measuring the protein-bound radioactivity. Data are presented as means ±S. E. M. of two independent experiments (B). […] RGS2-GFP inducible HeLa cells were cultured for 48 h in the absence or in the presence of tetracycline and loaded with fura-2. Cells were treated with histamine (100 μM) or m-3M3FBS (25 μM), and changes in the 340 nm/380 nm ratios were monitored and converted to [Ca^2+]i values. The results shown are representative of three independent experiments (C).

Gq-proteins = test: [Ca2+]i in RGS2-GFP inducible HeLa cells; assay type: cell-based, human; settings: histamine 100 μM, m-3M3FBS 25 μM
Description: as §1
pRevTRE vector containing the cDNA of rat RGS2-GFP was transfected into Hela Tet-off cells using Lipofectamine. Selection was performed in DMEM supplemented with 2 μg/ml of tetracycline and 500 μg/ml of hygromycin B. Two weeks later, several well-isolated colonies were picked out and analyzed by western blotting to determine the expression level of RGS2 in the absence of tetracycline. For these experiments, HeLa cells were cultured for 48 h in the absence or in the presence of tetracycline.
Freshly prepared human neutrophils were incubated in serum free RPMI 1640 medium with 3 μM of fura-2/AM at 37° C. for 30 min with continuous stirring. After washing with serum free RPMI 1640 medium, the cells were suspended in serum free RPMI containing 250 μM of sulfinpyrazone to prevent dye leakage. About 2×10^6 cells were suspended in Ca^2+ free Locke's solution (158.4 mM NaCl, 5.6 mM KCl, 1.2 mM MgCl2, 5 mM HEPES pH 7.3, 10 mM glucose, and 0.2 mM EGTA) for each measurement. Changes in the fluorescence ratio were measured at an emission wavelength of 500 nm for dual excitation wavelengths at 340 nm and 380 nm. The calibration of the fluorescence ratio versus [Ca^2+]i was performed as described by Grynkiewicz (Grynkiewicz et al., 1985).

PLC = test: In vitro PLC activity in the presence or absence of Ca2+; assay type: biochemical; settings: data not shown
Source text: Moreover, the primary structures of the several different isoforms of PLC are known (Rhee, 2001; Noh et al., 1995). PLC β and PLC δ have an NH2-terminal PH domain, an EF-hand, X and Y domains, known to form the catalytic core, and a COOH-terminal C2 domain. In addition, PLC β has a long C-terminal tail beyond the C2 domain (Rhee, 2001; Noh et al., 1995; Rhee and Bae, 1997). PLC γ has additional three SH domains between the X and Y domains, but no long COOH-terminal tail (Rhee, 2001; Noh et al., 1995; Rhee and Bae, 1997). […] For the proper activation of PLC enzyme, calcium has been regarded as an essential requirement (Rhee and Bae, 1997). Calcium is required not only for the functioning of C2 domain that mediates the Ca^2+-dependent binding to lipid vesicles but also for the catalytic activity of the enzyme (Rhee and Bae, 1997). […] An investigation of the effect of m-3M3FBS on the lipase activity of an X and Y domain mixture will be required to confirm the possible action of m-3M3FBS on the two catalytic cores. Since m-3M3FBS is the first compound that directly stimulates PLC activity, the elucidation of the action mechanism of the compound will give useful information on the basic molecular mechanisms of the activation of PLC enzymes.

phospholipase D = test: In vitro activity of phospholipase D; assay type: biochemical; settings: data not shown

Row | Structure (SMILES) | effect on superoxide generation (human neutrophils) | calcium increase (PC12 cells) | intracellular cAMP level (Gs-proteins) | [Ca2+]i increase (Gq-proteins; HeLa cells in the presence of tetracycline (RGS2 not induced)) | effect of RGS2 induction on the induced calcium response (Gq-proteins; HeLa cells overexpressing RGS2) | in vitro PLC activity (PLC) | activity of phospholipase D (phospholipase D)
1 | Cc1cc(C)c(S(=O)(=O)Nc2ccccc2C(F)(F)F)c(C)c1 [o-3M3FBS, 2,4,6-Trimethyl-N-(ortho 3-trifluoromethyl-phenyl)-benzenesulfonamide, reference compound] | did not affect | – | – | – | – | – | –
2 | Cc1cc(C)c(S(=O)(=O)Nc2cccc(C(F)(F)F)c2)c(C)c1 [m-3M3FBS, 2,4,6-Trimethyl-N-(meta 3-trifluoromethyl-phenyl)-benzenesulfonamide] | – | induced calcium increase | didn't change the cAMP level | caused [Ca^2+]i increases | unaffected | stimulated | did not affect
